Results on 23 molecules are retold here after PMC6151726, “Design and Antiproliferative Evaluation of Novel Sulfanilamide Derivatives as Potential Tubulin Polymerization Inhibitors” (Molecules : A Journal of Synthetic Chemistry and Natural …, 2017).

Values after ≈ are worked out from the molar mass of the structure shown. Read-outs that look alike come from different tables or passages of the source.

Series [1] deals with MGC-803 (human gastric cancer cell line). Put plainly: MTT antiproliferative assay, MGC-803. The format is cell-based. To be noted: exposure for 48 h, means ± SDs of three independent experiments. Here is the method:
(§1) All synthesized sulfonamide-1,2,3-triazole hybrids were evaluated for their anticancer activity against three cancer cell lines: MGC-803 (human gastric cancer cell line), MCF-7 (human breast cancer cell line), and PC-3 (human prostate cancer cell line) using a MTT (4,5-dimethyl-2-thiazolyl)-2,5-diphenyl-2-H-tetrazolium bromide) assay. The well-known tubulin polymerization inhibitor CA-4P was used as a control. In [24], 5-fluorouracil (5-Fu) was selected as the control in the antiproliferative evaluation assay of 1,2,3-triazole derivatives. Therefore, 5-Fu was also used as the reference drug in this MTT assay.
(§2) MGC-803 cells (human gastric cancer), MCF-7 (human breast cancer), PC-3 (human prostate cancer) and GES-1 (human gastric epithelial cell) were cultured in RPMI 1640 medium with 10% FBS and 100 U/mL penicillin and 0.1 mg/mL streptomycin in the 37 °C in an atmosphere containing 5% CO2. All cell lines were purchased from the China Center for Type Culture Collection (CCTCC, Shanghai, China). For pharmacological investigations, 10 mM stock solutions of the tested compounds were prepared with dimethyl sulfoxide (DMSO). […] The MTT assay was prepared according to the previous method.
(In general: Tetrazolium dyes change colour on reduction, which living cells bring about.)

Series [2] has as its system MCF-7 (human breast cancer cell line). Put plainly: MTT antiproliferative assay, MCF-7. It counts as cell-based. To be noted: MCF7, exposure for 48 h, means ± SDs of three independent experiments. Here is the method: as §1, §2
Series [3] has as its system PC-3 (human prostate cancer cell line). Put plainly: MTT antiproliferative assay, PC-3. It counts as cell-based. To be noted: exposure for 48 h, means ± SDs of three independent experiments. On the procedure:
as §1, §2

Series [4] concerns MGC-803, MCF-7 and PC-3 cells. Put plainly: MTT antiproliferative assay, three cancer cell lines together. To be noted: Homo sapiens; range over MGC-803, MCF-7 and PC-3; read-out: IC50 values ranging over three cell lines. It counts as cell-based. On the procedure: as §1, §2
Series [5] can be described thus: MTT assay on normal cells, GES-1. The format is cell-based. The following applies: GES-1 cells (normal gastric epithelial cell line), normal human gastric epithelial cell line, read-out: inhibitory effect / cytotoxicity against GES-1. On the procedure:
Compound 11f was further examined for possible inhibitory effects against GES-1 (normal human gastric epithelial cell line).
as §2

Series [6] relates to tubulin. Put plainly: In vitro tubulin polymerization inhibition assay. To be noted: 5.6 mg/mL tubulin in PEM buffer, read-out: inhibitory concentration that reduced the polymerized tubulin by 50% (IC50). The format is biochemical. Here is the method: The inhibitory concentrations that reduced the polymerized tubulin by 50% of CA-4P was 2.40 μM [25]. To investigate whether the synthesized 1,2,3-triazole-sulfonamide hybrids target the tubulin-microtubule system, the in vitro tubulin polymerization inhibition activity of compound 11f was evaluated because of its best antiproliferative activity results among all the tested compounds in the initial cytotoxicity screening. When tubulin was incubated with the tested 1,2,3-triazole-sulfonamide 11f at the indicated concentrations, an increased fluorescence intensity was obvious.
Tubulin polymerization in vitro was assyed with 100 μL samples and monitored by absorbance at 350 nm (Filter A00019x) in 96-well plates with an Appliskan plate reader (Thermo Fisher Scientific, Waltham, MA, USA). An amount of 5.6 mg/mL tubulin was resuspended in PEM buffer (80 mM PIPES (pH 6.9), 1 mM EGTA, 0.5 mM MgCl2, […], 10.2% (v/v) glycerol) and then was preincubated with compound 11f or vehicle DMSO on ice. Data were exported using the Thermo Scientific SkanIt software of the Appliskan (version 2.3) and Excel software was used to generate plots. For convenience, data were normalized to the minimum absorbance value of the initial stable plateau. This tubulin polymerization inhibition assay was measured according to the method originally.

In series [7] the test system is PC3 cells. Also on record: method as in PMID 27423028. To be noted: read-out: IC50 against PC3 cells; cited from earlier work.
Series [8] deals with 4T1 mammary tumor cells. The following applies: 45 mg/kg; cited from earlier work.
Series [9] has as its system CDK2. Set-up: method as in PMID 28005359. The following applies: cited from earlier work.
Series [10] concerns CDK1. Set-up: method as in PMID 28005359. The following applies: cited from earlier work.
The test system of series [11] is HCT116 human colon carcinoma. Set-up: method as in PMID 10508428. The following applies: cell proliferation assay; cited from earlier work.
Series [12] deals with murine leukemia. Set-up: method as in PMID 26501246. To be noted: read-out: IC50 against the proliferation of murine leukemia; cited from earlier work.
The subject of series [13] is tubulin. Also on record: method as in PMID 24923521. The following applies: read-out: IC50 inhibition of tubulin assembly; cited from earlier work.
For series [14], the system named is A2780AD cell line. Set-up: method as in PMID 28640209. To be noted: read-out: IC50 antiproliferative activity against A2780AD cell line; cited from earlier work.

With `O=c1[nH]cc(F)c(=O)[nH]1` [5-Fu, 5-Fluorouracil, reference compound], the IC50 in series [1] amounted to 15.6 ± 0.4 µM; in series [2], 21.2 ± 3.6 µM; in series [3] (Homo sapiens, 48 h) it was 13.9 ± 1.5 µM.
For `C#CCNS(=O)(=O)c1cccs1` [9a, N-(Prop-2-yn-1-yl)thiophene-2-sulfonamide] the same measures were greater than 100 µM, greater than 100 µM and greater than 100 µM.
As usually defined, the melting point is the temperature of the solid-liquid transition. In the case of `C#CCNS(=O)(=O)c1ccc2oc(=O)ccc2c1` [9d, 2-Oxo-N-(prop-2-yn-1-yl)-2H-chromene-6-sulfonamide], the melting point was in the range of 193 to 196 °C. This molecule also had an IC50 in series [1] greater than 100 µM. For the same molecule, in series [2], the IC50 is greater than 100 µM. For the same molecule, the IC50 in [3] (Homo sapiens, 48 h) was greater than 100 µM.
In the case of `C#CCNS(=O)(=O)c1ccc(C)cc1` [9f, 4-Methyl-N-(prop-2-yn-1-yl)benzenesulfonamide], the IC50 in series [1] is greater than 100 µM; in series [2] it was greater than 100 µM; in [3] (Homo sapiens, 48 h), greater than 100 µM.
Turning to `O=S(=O)(NCc1cn(Cc2cccc(Oc3ccccc3)c2)nn1)c1cccs1` [11a, N-((1-(3-Phenoxybenzyl)-1H-1,2,3-triazol-4-yl)methyl)thiophene-2-sulfonamide], the melting point lay within 104 to 106 °C. This molecule yielded an IC50 in series [1] of 17 ± 1.8 µM. For the same molecule, the IC50 in [2] was 78.5 ± 2.2 µM. For the same molecule, in series [3] (Homo sapiens, 48 h), the IC50 was found to be 24.6 ± 0.9 µM.
For `O=S(=O)(NCc1cn(Cc2cccc(Oc3ccccc3)c2)nn1)c1ccc(Cl)s1` [11b, 5-Chloro-N-((1-(3-phenoxybenzyl)-1H-1,2,3-triazol-4-yl)methyl)thiophene-2-sulfonamide] the same measures were 110 to 111 °C, 15.3 ± 0.8 µM, 49.9 ± 1.2 µM and 19.8 ± 0.6 µM.
The like results for `O=S(=O)(NCc1cn(Cc2cccc(Oc3ccccc3)c2)nn1)c1ccc(Br)s1` [11c, 5-Bromo-N-((1-(3-phenoxybenzyl)-1H-1,2,3-triazol-4-yl)methyl)thiophene-2-sulfonamide] were, in that order, 111 to 112 °C, 31 ± 2.2 µM, 34.7 ± 2.6 µM and 49.4 ± 1 µM.
Molecule `O=c1ccc2cc(S(=O)(=O)NCc3cn(Cc4cccc(Oc5ccccc5)c4)nn3)ccc2o1` [11d, 2-Oxo-N-((1-(3-phenoxybenzyl)-1H-1,2,3-triazol-4-yl)methyl)-2H-chromene-6-sulfonamide] had a melting point of 144 to 146 °C. For the same molecule, in series [1], the IC50 was 88.8 ± 0.5 µM. The molecule also had an IC50 in series [2] of 36.4 ± 2 µM. This molecule returned an IC50 in series [3] (Homo sapiens, 48 h) of 34.1 ± 0.3 µM. In series [4], the IC50 lay within 34.1 to 88.8 µM.
Molecule `O=S(=O)(NCc1cn(Cc2cccc(Oc3ccccc3)c2)nn1)c1ccccc1` [11e, N-((1-(3-Phenoxybenzyl)-1H-1,2,3-triazol-4-yl)methyl)benzenesulfonamide] showed a melting point of 127 to 130 °C. Further, the IC50 in series [1] was determined as 21.7 ± 0.1 µM. The IC50 in series [2] worked out at 39.6 ± 5 µM. This molecule displayed an IC50 in series [3] (Homo sapiens, 48 h) of 6.4 ± 1.2 µM.
For the molecule `Cc1ccc(S(=O)(=O)NCc2cn(Cc3cccc(Oc4ccccc4)c3)nn2)cc1` [11f, 4-Methyl-N-((1-(3-phenoxybenzyl)-1H-1,2,3-triazol-4-yl)methyl)benzenesulfonamide], the melting point lay within 118 to 121 °C. This molecule came in with an IC50 in series [1] of 13.7 ± 2.9 µM. In [2], the IC50 worked out at 15.7 ± 0.2 µM. Moreover, the IC50 in series [3] (Homo sapiens, 48 h) worked out at 4.08 µM. This molecule also displayed an IC50 in series [3] of 4.1 ± 1.4 µM. Also, the IC50 in [5] is greater than 64 µM. For the same molecule, the IC50 in [6] was determined as 2.41 µM. Further, the IC50 in series [4] was in the range of 4.1 to 15.7 µM.
For the molecule `CC(C)(C)c1ccc(S(=O)(=O)NCc2cn(Cc3cccc(Oc4ccccc4)c3)nn2)cc1` [11g, 4-(Tert-butyl)-N-((1-(3-phenoxybenzyl)-1H-1,2,3-triazol-4-yl)methyl)benzenesulfonamide], the melting point is 137 to 139 °C. The IC50 in series [1] is greater than 100 µM. Also, the IC50 in series [2] is 54.9 ± 1.7 µM. This molecule also had an IC50 in series [3] (Homo sapiens, 48 h) of 7.1 ± 0.5 µM.
As for `Cc1cc(C)c(S(=O)(=O)NCc2cn(Cc3cccc(Oc4ccccc4)c3)nn2)c(C)c1` [11h, 2,4,6-Trimethyl-N-((1-(3-phenoxybenzyl)-1H-1,2,3-triazol-4-yl)methyl)benzenesulfonamide], the melting point lay in the range of 111 to 113 °C. The molecule further showed an IC50 in series [1] of 18.4 ± 0.7 µM. For the same molecule, the IC50 in series [2] worked out at 24.6 ± 1.6 µM. Further, the IC50 in series [3] (Homo sapiens, 48 h) worked out at 24.7 ± 3 µM.
For `O=S(=O)(NCc1cn(Cc2cccc(Oc3ccccc3)c2)nn1)c1ccccc1Cl` [11i, 2-Chloro-N-((1-(3-phenoxybenzyl)-1H-1,2,3-triazol-4-yl)methyl) benzenesulfonamide] the same measures were 97 to 99 °C, 15.3 ± 0.5 µM, 77.5 ± 0.7 µM and 22.7 ± 0.5 µM.
`Cc1ccc(S(=O)(=O)NCc2cn(Cc3cccc(C#N)c3)nn2)cc1` [11j, N-((1-(3-Cyanobenzyl)-1H-1,2,3-triazol-4-yl)methyl)-4-methylbenzenesulfonamide] returned a melting point of 145 to 147 °C. This molecule also returned an IC50 in series [1] of 41.3 ± 2.3 µM. Further, the IC50 in series [2] is greater than 100 µM. Further, in series [3] (Homo sapiens, 48 h), the IC50 was greater than 100 µM.
`Cc1ccc(S(=O)(=O)NCc2cn(Cc3cccc(C)c3)nn2)cc1` [11k, 4-Methyl-N-((1-(3-methylbenzyl)-1H-1,2,3-triazol-4-yl)methyl)benzenesulfonamide]: the melting point is 145 to 148 °C. This molecule also yielded an IC50 in series [1] of 75.8 ± 0.6 µM. Moreover, in series [2], the IC50 is greater than 100 µM. Further, the IC50 in [3] (Homo sapiens, 48 h) is greater than 100 µM.
Molecule `COc1cccc(Cn2cc(CNS(=O)(=O)c3ccc(C)cc3)nn2)c1` [11l, N-((1-(3-Methoxybenzyl)-1H-1,2,3-triazol-4-yl)methyl)-4-methylbenzenesulfonamide] came in with a melting point of 112 to 114 °C. Further, in series [1], the IC50 was 77.2 ± 7.8 µM. In addition, the IC50 in series [2] was greater than 100 µM. Moreover, in series [3] (Homo sapiens, 48 h), the IC50 is greater than 100 µM.
Turning to `O=S1(=O)CCCN(S(=O)(=O)c2ccc(-c3cnc(C4CC4)o3)cc2)c2ccccc21` [BA-3P], the IC50 in [7] is 5.88 µM.
In the case of `NS(=O)(=O)c1ccc(NC(=O)Nc2cccc([N+](=O)[O-])c2)cc1` [compound 1], the “formation of metastases by 4T1 mammary tumor cells” value in series [8] is recorded as “significantly inhibited the formation of metastases”.
On to `NS(=O)(=O)c1ccc(Nc2nc(-c3cccc(-c4ccccc4)c3)c3nc[nH]c3n2)cc1` [compound 3], for which the IC50 in [9] is 0.044 µM; in series [10], 86 µM. For the same molecule, the “fold less active toward CDK1 than CDK2” value in series [10] (CDK1 vs CDK2) is given as ~ 2000 fold.
For the molecule `NS(=O)(=O)c1ccc(S(=O)(=O)Nc2cccc3c(Cl)c[nH]c23)cc1` [compound 4, N-(3-chloro-7-indolyl)-1,4-benzenedisulfonamide], the “IC50 against HCT116 human colon carcinoma” value in series [11] is 0.11 µg/mL (≈ 0.285 µM).
As for `Nc1nc(Cl)c2ncn(Cc3cn(C[C@H](OCc4ccccc4)[C@@H](O)P(=O)(OCc4ccccc4)OCc4ccccc4)nn3)c2n1` [compound 5], the IC50 in [12] is 21 µM.
Take `COc1cc2c(cc1O)CC[C@@H]1[C@@H]2CC[C@@]2(C)[C@H]1CC[C@@]2(O)c1cn(-c2ccc(OC(F)(F)F)cc2)nn1` [compound 7]: in series [13], the IC50 is 5.9 µM.
Quinolin-6-yloxyacetamide: the IC50 in [14] was 0.262 µM.
